Columns and labels:
Cyp1a1 mRNA in liver = test: Cyp1a1 gene expression in liver (real-time PCR); format: in vivo, female C57BL/6 mice; details: for BMR20TCDD Liver Cyp1a1 mRNA: 3 days after single oral dose; for REP Liver Cyp1a1 mRNA: relative to TCDD
Protocol: (§1) Animals. Eight-week-old female C57BL/6 mice (Harlan laboratories, Venray, the Netherlands) were randomly assigned to treatment groups (six animals per group) and allowed to acclimate for 1.5 weeks. The animals were housed in groups in standard cages and conditions (23 ± 2°C, 50–60% relative humidity, 12-hr dark/light cycle) with free access to food and water. Mice received a single dose of test compound by oral gavage at a dosing volume of 10 mL/kg body weight (BW). Mice treated with corn oil vehicle (10 mL/kg BW) served as controls. For each congener, five different doses were administered, ranging from 0.5–100 μg/kg BW (TCDD) to 5,000–500,000 µg/kg BW (PCB-153). Detailed information on doses is provided in Supplemental Material, Table S1 (http://dx.doi.org/10.1289/ehp.1206336). On day 3 after dosing, animals were euthanized by CO2/O2 asphyxiation, and blood was immediately collected from the abdominal aorta. The liver, thymus, spleen, and adipose tissue were removed, weighed (liver, thymus, and spleen), snap frozen, and stored at –80°C. All animal treatments were performed with permission of the Animal Ethical Committee (DEC Utrecht) and performed according to the [Law on Animal Experiments (1977)]. Animals were treated humanely and with regard for alleviation of suffering.
(§2) RNA isolation and quantitative real-time polymerase chain reaction (PCR). Total RNA was isolated from liver and PBLs using a QIAGEN RNeasy kit (QIAGEN). Purity and concentration of the isolated RNA was determined by measuring the absorbance ratio at 260/280 nm and 230/260 nm with a Nanodrop 2000 spectrophotometer (Thermo Scientific, Asheville, NC, USA). RNA was reverse transcribed to complementary DNA (cDNA) using the iScript cDNA synthesis Kit (Bio-Rad, Veenendaal, the Netherlands). Quantitative real-time PCR analyses were performed using the iQ Real-Time PCR Detection System with SYBR green (Bio-Rad). Amplification reactions were set up with […] containing 12.5 μL iQ SYBR Green Supermix (Bio-rad), 0.5 μL distilled H2O, 1 μL (10 μM) forward primer, 1 μL (10 μM) reverse primer, and 10 μL first strand cDNA (10X diluted). Primer sequences were as follows: Cyp1a1: forward-5´-GGTTAACCATGACCGGGAACT-3´ and reverse-5´-TGCCCAAACCAAAGAGAGTGA-3´ ([Schulz et al. 2012]); Cyp1a2: forward-5´-ACATTCCCAAGGAGCGCTGTATCT-3´ and reverse-5´-GTCGATGGCCGAGTTGTTATTGGT-3´ ([Flaveny et al. 2010]); Cyp1b1: forward-5´-GTGGCTGCTCATCCTCTTTACC-3´ and reverse-5´-CCCACAACCTGGTCCAACTC-3´ ([Berge et al. 2004]); β-actin: forward-5´-ATGCTCCCCGGGCTGTAT-3´ and reverse-5´-CATAGGAGTCCTTCTGACCCATTC-3´ ([Schulz et al. 2012]). All primers were run through the National Center for Biotechnology Information Primer-BLAST database (http://www.ncbi.nlm.nih.gov/tools/primer-blast/) to confirm specificity and validate for optimal annealing temperature (60°C for all primers) and efficiency. […] The following program was used for denaturation and amplification of cDNA: 3 min at 95°C, followed by 40 cycles of 15 sec at 95°C and 45 sec at 60°C. Gene expression for each sample was expressed as threshold cycle (Ct), normalized to the reference gene β-actin (ΔCt). We calculated fold induction relative to the control group.
Data analysis. We obtained concentration–response curves using a sigmoidal dose–response nonlinear regression curve fit with variable slope (GraphPad Prism 6.01; GraphPad Software Inc., San Diego, CA, USA):
In this Hill equation, y is the dependent variable (EROD activity or fold induction of mRNA levels), x the independent variable (administered or systemic dose), E0 is the estimated background response level, Emax is the maximum response, b is the estimated median effective concentration (EC50), and n is the shaping parameter of the Hill curve.
Using the congener-specific BMR20TCDD concentration, REPs were calculated relatively to TCDD: […]

Cyp1a1 mRNA in PBLs = test: Cyp1a1 gene expression in peripheral blood lymphocytes; format: in vivo, female C57BL/6 mice; details: for BMR20TCDD PBLs Cyp1a1 mRNA: 3 days after single oral dose; for REP PBLs Cyp1a1 mRNA: relative to TCDD
Protocol: as §1
Plasma and PBL isolation. Blood from two mice was pooled (total volume of approximately 1.4 mL); plasma and PBLs were then isolated using Ficoll Paque gradient (GE Healthcare Europe, Diegem, Belgium). Plasma samples were stored at –80°C until compound analysis. Isolated lymphocytes were lysed with RLT buffer (QIAGEN, Venlo, the Netherlands) as described in the QIAGEN RNAeasy kit protocol and stored at –80°C until use.
as §2
Data analysis. We obtained concentration–response curves using a sigmoidal dose–response nonlinear regression curve fit with variable slope (GraphPad Prism 6.01; GraphPad Software Inc., San Diego, CA, USA): […]

[1] = dose metric Adm dose (µg/kg BW)
[2] = dose metric Syst liver (ng/g lipid)
[3] = dose metric Syst liver (ng/g liver)
[4] = dose metric Syst plasma (ng/g lipid)
[5] = dose metric Syst adipose (ng/g lipid)

Row | Structure (SMILES) | BMR20TCDD Liver Cyp1a1 mRNA (Cyp1a1 mRNA in liver; dose metric Adm dose) | BMR20TCDD Liver Cyp1a1 mRNA (Cyp1a1 mRNA in liver; dose metric Syst plasma) | REP Liver Cyp1a1 mRNA (Cyp1a1 mRNA in liver; [1]) | REP Liver Cyp1a1 mRNA (Cyp1a1 mRNA in liver; [2]) | REP Liver Cyp1a1 mRNA (Cyp1a1 mRNA in liver; [3]) | REP Liver Cyp1a1 mRNA (Cyp1a1 mRNA in liver; [4]) | BMR20TCDD Liver Cyp1a1 mRNA (Cyp1a1 mRNA in liver; dose metric Syst adipose) | REP Liver Cyp1a1 mRNA (Cyp1a1 mRNA in liver; [5]) | BMR20TCDD PBLs Cyp1a1 mRNA (Cyp1a1 mRNA in PBLs; dose metric Adm dose) | BMR20TCDD PBLs Cyp1a1 mRNA (Cyp1a1 mRNA in PBLs; dose metric Syst plasma) | REP PBLs Cyp1a1 mRNA (Cyp1a1 mRNA in PBLs; [1]) | REP PBLs Cyp1a1 mRNA (Cyp1a1 mRNA in PBLs; [4])
1 | Clc1ccc(-c2cc(Cl)c(Cl)cc2Cl)cc1Cl [PCB-118, 2,3´,4,4´,5-pentachlorobiphenyl] | 139,631 µg/kg BW | 803,766 ng/g lipid | 0.000005 | 0.00005 | 0.00007 | 0.000003 | – | – | – | – | – | –
2 | Clc1ccc(-c2cc(Cl)c(Cl)c(Cl)c2)cc1Cl [PCB-126, 3,3´,4,4´,5-pentachlorobiphenyl] | 558 µg/kg BW | – | 0.001 | 0.001 | 0.001 | 0.008 | 315 ng/g lipid | 0.008 | 603 µg/kg BW | 847 ng/g lipid | 0.04 | 0.06
3 | Clc1ccc(-c2cc(Cl)c(Cl)c(Cl)c2Cl)cc1Cl [PCB-156, 2,3,3´,4,4´,5-hexachlorobiphenyl] | 44,305 µg/kg BW | 303,586 ng/g lipid | 0.00001 | 0.0001 | 0.0001 | 0.000009 | 180,515 ng/g lipid | 0.00001 | 747,734 µg/kg BW | 2,359,081 ng/g lipid | 0.00003 | 0.00002
4 | Clc1cc2c(cc1Cl)Oc1c(cc(Cl)c(Cl)c1Cl)O2 [PeCDD, 1,2,3,7,8-pentachlorodibenzodioxin] | 1.25 µg/kg BW | 3.94 ng/g lipid | 0.5 | 0.4 | 0.4 | 0.7 | 2.36 ng/g lipid | 1 | 33.7 µg/kg BW | 34.0 ng/g lipid | 0.7 | 1.5
5 | Clc1cc2c(cc1Cl)Oc1cc(Cl)c(Cl)cc1O2 [TCDD, 2,3,7,8-tetrachlorodibenzodioxin, reference compound] | 0.64 µg/kg BW | 2.66 ng/g lipid | 1 | 1 | 1 | 1 | 2.50 ng/g lipid | 1 | 22.4 µg/kg BW | 50.6 ng/g lipid | 1 | 1

— article PMC3702004, “Comparison of Intake and Systemic Relative Effect Potencies of Dioxin-like Compounds in Female Mice after a Single Oral Dose” (Environmental Health Perspectives, 2013)
